Experimental data as given in patent publication US20260325504A1, “Genetically Engineered Human Pituitary Corticotroph Tumor Organoids Exhibit Divergent Responses to Selective Glucocorticoid Receptor Modulators” (Corcept Therapeutics Incorporated, priority 2022, published 2026).
“Also recorded” adds a separate entry of the source. Starred links: 1 amine or outer side, 2 acyl side, 3 side chain; linkers in the order of their positions; H or OH if unused. Non-standard residues stand in square brackets, D forms with d. Residues, ends and D or L forms follow the SMILES beside them. Groups on a side chain read outwards from the residue. *: point of attachment. Ethylenediamine = C(CN[*:2])N[*:1]; Hyp = O=C(O)[C@@H]1C[C@@H](O)CN1; Phg = N[C@H](C(=O)O)c1ccccc1; CO = O=C([*:1])[*:2]; Bn = c1ccc(C*)cc1

Key:
iPSC^ctrl organoids [1] = test: EdU uptake (proliferation) in iPSCctrl organoids; format: cell-based, human; conditions: 100 nM pretreatment 2 h before mifepristone
Method: (§1) iPSCs were stained for pituitary specific hormones including luteinizing hormone (LH), follicle-stimulating hormone (FSH), growth hormone (GH), prolactin (PRL), ACTH, cytokeratin 8/18 (CAM5.2), pituitary transcription factor PIT-1 and neuroendocrine marker Synaptophysin (Table 5). Cultures were immunostained for proliferation marker EdU (Click-IT EdU Alexa Fluor 555 Imaging Kit, Thermo Fisher Scientific C10338). Antibody dilutions were determined based on manufacturer guidelines and antibody titration (Table 5). Staining was conducted according to previously published protocols. Briefly, organoids and iPSCs grown in 8-well glass bottom chamber slides were fixed using 3.7% formaldehyde, washed with DPBS, permeabilized with 0.5% Triton X-100 (SIGMA X-100, PBS-T, 20 min at room temperature), washed with 0.01% PBS-T, and blocked with 2% donkey serum (Jackson Immuno Research 017-000-121) for 1 hour at room temperature. After blocking, primary antibodies were added and incubated overnight at 4° C. Slides were washed with 0.01% PBS-T and incubated with secondary antibodies (Table 5) with Hoechst (Thermo Fisher Scientific H1399) for 1 hour at room temperature. Organoids were washed and stored in PBS at 4° C. until microscopic analysis. High content confocal microscopy was performed using the Nikon Ti2-E Inverted Microscope (with a Crest X-Light V2 L-FOV Spinning Disk Confocal) at the University of Arizona Cancer Center, or a ZEISS LSM880 34 channel Laser Scanning Confocal Microscope at University of Arizona Marley Imaging Core. Fluorescence intensity was quantified as the percentage of marker-positive cells versus total cells, using Nikon Elements Software (Version 5.21.05). Proliferation for each iPSC line was quantified as the percentage of EdU-positive cells versus total cells.
(§2) Sonic Hedgehog (SHH) was withdrawn from the organoid growth media 16 hours prior to treatment. The experimental treatment groups included: vehicle (Veh), mifepristone (500 nM, Selleckchem S2606), GANT61 (5 μM, Stemcell Technologies 73692), ketoconazole (Keto, 10 μM, Selleckchem S1353), pasireotide (Pas, 100 nM, Target Mol TP2207-SB001), octreotide (Oct, 100 nM, Selleckchem P1017), mifepristone plus GANT61, mifepristone plus Keto, mifepristone plus Pas, relacorilant (500 nM, Corcept Therapeutics CORT125134), relacorilant plus Pas, relacorilant plus Oct, or dexamethasone (Dexa, 100 nM, SIGMA S4902). In the combination treatments, cultures were pretreated with the GANT61, Keto, Pas or Oct for 2 hours prior to treatment with mifepristone or Rela. […] The IC50 values used for each hPITO line for each drug were determined based on dose responses (FIG. 12). […]

SSTR5 = conditions: cited from earlier work
[2] = test system: patients with Cushing's syndrome; conditions: pasireotide monotherapy, patients with CD, cited from earlier work
iPSC^ctrl organoids [3] = test: ACTH secretion ELISA, iPSCctrl organoids; format: cell-based, human; conditions: FIG. 6G
Method: (§3) Sonic Hedgehog (SHH) was withdrawn from the organoid growth media 16 hours prior to treatment. The experimental treatment groups included: vehicle (Veh), mifepristone (500 nM, Selleckchem S2606), GANT61 (5 μM, Stemcell Technologies 73692), ketoconazole (Keto, 10 μM, Selleckchem S1353), pasireotide (Pas, 100 nM, Target Mol TP2207-SB001), octreotide (Oct, 100 nM, Selleckchem P1017), mifepristone plus GANT61, mifepristone plus Keto, mifepristone plus Pas, relacorilant (500 nM, Corcept Therapeutics CORT125134), relacorilant plus Pas, relacorilant plus Oct, or dexamethasone (Dexa, 100 nM, SIGMA S4902). In the combination treatments, cultures were pretreated with the GANT61, Keto, Pas or Oct for 2 hours prior to treatment with mifepristone or Rela. PitNET tissue derived organoids hPITO36, hPITO37, hPITO38, hPITO39, and hPITO40 were treated with the following experimental conditions: Vehicle (1), pasireotide (2), relacorilant (3), relacorilant & pasireotide (4), mifepristone (5), mifepristone & pasireotide (6). The IC50 values used for each hPITO line for each drug were determined based on dose responses (FIG. 12). All organoid cultures were treated for 48 hours prior to analysis.
(§4) Organoid conditioned media was collected and ACTH secretion using an ELISA according to the manufacturer's protocol (Novus Biologicals Human ACTH ELISA Kit NBP2-66401). The optical density was measured at a wavelength of 450 nm, and ACTH concentration (pg/mL) was interpolated using a standard curve with a 4-parameter logistic regression analysis using GraphPad Prism (v9.3.1).

iPSC^USP48MV organoids [4] = test: ACTH secretion ELISA, iPSCUSP48 organoids; format: cell-based, human; conditions: FIG. 7G
Method: as §3, §4

hPITO37 = test: Dose response of hPITO37; format: cell-based, human; conditions: hPITO37, FIG. 12
Method: as §3

iPSC^USP48MV organoids [5] = test: EdU uptake (proliferation) in iPSCUSP48MV organoids; format: cell-based, human; conditions: 100 nM pretreatment 2 h before mifepristone
Method: as §1, §2

ACTH = test: Spectral flow cytometry, ACTH positive cells, hPITOs; format: cell-based, human; conditions: hPITO, pretreatment before mifepristone, FIGS. 9I, J
Text: 1.3 Generation and Culture of Human PitNET Tissue Organoids (hPITOs)
Patients undergoing planned transsphenoidal surgery for PitNETs were identified in the outpatient neuroendocrinology and neurosurgery clinics and collected by the St. Joseph's Hospital and Barrow Neurological Institute Biobank under the collection protocol PHXA-05TS038, and outcomes data protocol PHXA-0004-72-29 with approval of the Institutional Review Board (IRB) and patient consent. De-identified samples were shipped in collection and transport media (Table 3) to the Zavros laboratory (University of Arizona) for processing within 24 hours of collection. Resected PitNET tissues were washed with Dulbeccos Phosphate Buffered Saline (DPBS) supplemented with 1× Penicillin/Streptomycin, 1× Kanamycin and 1× Amphotericin/Gentamycin, minced into smaller pieces, and incubated with digestion buffer (Dulbecco's Modified Eagle Medium/Nutrient Mixture F-12 (DMEM/F12) supplemented with 0.4% Collagenase 2, 0.1% Hyaluronic Acid, 0.03% Trypsin). The tissue was incubated with Accutase (Thermo Fisher Scientific) for a further 5 minutes, and the cells were pelleted and washed with DPBS supplemented with antibiotics. Dissociated cells were then seeded as Matrigel™ domes in culture dishes and overlaid with growth media (Table 4). Media was replaced every 3 days and organoids were harvested for downstream experiments or passaged after 15 days of culture (FIG. 1B).
Sonic Hedgehog (SHH) was withdrawn from the organoid growth media 16 hours prior to treatment. […] The IC50 values used for each hPITO line for each drug were determined based on dose responses (FIG. 12). […]

[6] = SST14 and SST28; cited from earlier work

| Compound | effect on proliferative response to mifepristone (EdU uptake) (iPSC^ctrl organoids [1]) | binding to / activation of SSTR5 (SSTR5) | patients with normalized cortisol [2] | patients with normalized urinary free cortisol ([2]; two large prospective studies) | effect on ACTH secretion in response to mifepristone (iPSC^ctrl organoids [3]; 100 nM pretreatment 2 h before mifepristone) | reduction of hormone (ACTH) secretion in combination with relacorilant (iPSC^ctrl organoids [3]; with relacorilant) | effect on ACTH secretion in response to mifepristone (iPSC^USP48MV organoids [4]; iPSCUSP48, 100 nM pretreatment 2 h before mifepristone) | reduction of hormone (ACTH) secretion in combination with relacorilant (iPSC^USP48MV organoids [4]; iPSCUSP48MV, with relacorilant) | drug response (sensitivity) (hPITO37) | effect on proliferative response to mifepristone (EdU uptake) (iPSC^USP48MV organoids [5]) | effect on mifepristone-induced increase of ACTH expressing cells (ACTH) | half-life [6] [min] |
| --- | --- | --- | --- | --- | --- | --- | --- | --- | --- | --- | --- | --- |
| NCCCC[C@@H]1NC(=O)[C@@H](Cc2c[nH]c3ccccc23)NC(=O)[C@H](c2ccccc2)NC(=O)[C@@H]2C[C@@H](OC(=O)NCCN)CN2C(=O)[C@H](Cc2ccccc2)NC(=O)[C@H](Cc2ccc(OCc3ccccc3)cc2)NC1=O [pasireotide] (cyclo([Hyp]([CO-Ethylenediamine])[Phg][dW]KY(Bn)F)) | no effect | high-affinity binding to SSTR5; also recorded: preferentially binds or activates somatostatin receptor type 5 (SSTR5) | up to 42% | up to 42% | significantly reduced ACTH secretion | greater magnitude compared to that of octreotide plus relacorilant | significantly reduced ACTH secretion | greater magnitude compared to that of octreotide plus relacorilant | insensitive | no effect | not inhibited |  |
| SST |  |  |  |  |  |  |  |  |  |  |  | < 3 |
